# According to article PMC5665643, “CHIP as a membrane-shuttling proteostasis sensor” (eLife, 2017):
# Experiments:
# [1] = tested on: EGFP-CHIP-K30A; type III phosphatidylinositol-4 kinases (PI4KIII); assay: Undocking of EGFP-CHIP-K30A from membranes by PI4KIII inhibitors; assay type: cell-based, murine; conditions: same cells followed upon addition of inhibitor; ***p<0.001, t-test; N = 3
# Excerpt: Phospholipase D inhibitors FIPI, VU0155069 and CAY10594 were purchased from Caymen Chemicals (Ann Arbor, MI), wortmannin from Enzo (Farmingdale, NY), PI4KIIIβ inhibitor IN-10 from MedChem Express (Monmouth Junction, NJ), HSP70 inhibitor VER-155008 from Sigma-Aldrich (St. Louis, MO), HSP90 inhibitor 17-(Allylamino)−17-demethoxygeldanamycin (17-AAG) from Biomol (Germany). 1,2-dioleoyl-sn-glycero-3-phosphocholine (DOPC) and 1,2-dipalmitoyl-sn-glycero-3-phosphate (phosphatidic acid, PA) were from Avanti Polar Lipids (Alabaster, AL), 1,2-dipalmitoyl-sn-glycero-3-phosphoinositol-4-phosphate (phosphadtidylinositol-4-phosphate, PI4P) was from Echelon Bioscience (Salt Lake City, UT). All other chemicals were from Sigma-Aldrich if not indicated otherwise. […]
# For microscopy analysis of CHIP localization, samples were not fixed. […] For quantification, fields of view were chosen randomly. […]
# Membrane localization and Golgi morphology were analyzed manually using ImageJ from following numbers of cells (average of at least three independent experiments): 92 (Figure 1a), 142 (Figure 1d), 90 (Figure 1—figure supplement 1b), 125 (Figure 1—figure supplement 1c), 149 (Figure 1—figure supplement 1d), 84 (Figure 3c), 130 (Figure 5a), 206 (Figure 5g), 240 (Figure 5h), 93 (Figure 5—figure supplement 1d), and 137 (Figure 5—figure supplement 1j). […]
# PI4KIII = conditions: at higher concentrations; ref Nakanishi et al., 1995; cited from earlier work
smiles,measurement,setting,value
COC[C@H]1OC(=O)c2coc3c2[C@@]1(C)C1=C(C3=O)[C@@H]2CCC(=O)[C@@]2(C)C[C@H]1OC(C)=O [wortmannin],"undocking of EGFP-CHIP-K30A from cellular membranes, wortmannin",[1],causes an acute undocking of EGFP-CHIP-K30A from cellular membranes
same,PI4KIII inhibition,PI4KIII,inhibits PI4KIII if used at higher concentrations
